Where two headings read alike, the source gives them in different places. Positions of bridges follow the written chain, without caps; N, C: chain ends. Non-standard residues stand in square brackets, D forms with d. Residues, ends and D or L forms follow the SMILES beside them. *: point of attachment. X4 = CC(=O)N[C@H]1[C@H](OCCCCC(=O)NCCCNCC(=O)CCOCC(COCCC(=O)NCCCNC(=O)CCCCO[C@@H]2O[C@H](CO)[C@H](O)[C@H](O)[C@H]2NC(C)=O)(COCCC(=O)NCCCNC(=O)CCCCO[C@@H]2O[C@H](CO)[C@H](O)[C@H](O)[C@H]2NC(C)=O)NC(=O)CCCCCCC(=O)*)O[C@H](CO)[C@H](O)[C@@H]1O; X1 = CC(=O)N[C@H]1[C@H]2OC[C@](COCCOCCOCCOCCn3cc(COCCNC(=O)CCOCCOCCOCCOCCC(=O)*)nn3)(O2)[C@H](O)[C@@H]1O; Bip = N[C@@H](Cc1ccc(-c2ccccc2)cc1)C(=O)O; Levulinoyl = CC(=O)CCC(=O)*; NMeA = CN[C@@H](C)C(=O)O
Experiments:
human ASGPR1 = biological target: T1, human ASGPR1 (Homo sapiens, UniProt P07306); experiment: ASGPR1 SPR direct binding (Biacore, SA chip)
T1 construct: Recombinant extracellular domain of human ASGPR1 with N-terminal biotinylated Avitag
T1 sequence (P07306 62-291 limits assumed): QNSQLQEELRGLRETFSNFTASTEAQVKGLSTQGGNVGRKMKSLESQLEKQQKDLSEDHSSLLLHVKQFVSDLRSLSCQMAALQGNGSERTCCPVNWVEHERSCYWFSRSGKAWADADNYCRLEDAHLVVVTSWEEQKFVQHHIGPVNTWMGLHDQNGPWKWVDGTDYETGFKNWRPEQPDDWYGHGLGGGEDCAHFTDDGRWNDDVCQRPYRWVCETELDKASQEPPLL
Protocol: SPR was used to obtain the binding data for ASGP receptor ligand compound (int-CC2), either alone or as part of the bifunctional compounds (BFC-13), (BFC-15) and (BFC16).
(§1) ASGPR1 SPR experiments were performed on either Biacore T200 or Biacore 8K. The assay was optimized for Biacore (Streptavidin) SA chip in running buffer consisting of 20 mM HEPES, 300 mM NaCl, 2 mM CaCl2, 0.01% tween-20, 2% DMSO, pH 7.4. Recombinant extracellular domain of human ASGPR1 with N-terminal biotinylated Avitag was diluted to 20 μg/mL in running buffer, and immobilized onto SA chip after it was preconditioned with at least four 60-second injections at 30 uL/min of 1 M NaCl/40 mM NaOH solution. Protein immobilization level varied from 500 RU to 3500 RU dependent on analytes' molecular weight, for targeted Rmax of 30 RUs. Direct binding of analytes to ASGPR1 was observed when a dose response titration of analytes in 2% DMSO was flown over the immobilized protein. Data analysis was done on either Biacore T200 Evaluation Software or Biacore Insight Evaluation Software.
SPR was used to obtain the binding data for ASGP receptor ligand compounds (int-CC2), either alone or as part of the bifunctional compounds (BFC1).
as §1, with “Biacore” for “Biacore (Streptavidin)”

human PCSK9 = biological target: T2, human PCSK9 (Homo sapiens, UniProt Q8NBP7); experiment: SPR binding to biotinylated human PCSK9 (Proteon XPR36)
T2 construct: Purified recombinant full length human PCSK9 with C-terminal biotinylated Avitag
T2 sequence (Q8NBP7 153-692): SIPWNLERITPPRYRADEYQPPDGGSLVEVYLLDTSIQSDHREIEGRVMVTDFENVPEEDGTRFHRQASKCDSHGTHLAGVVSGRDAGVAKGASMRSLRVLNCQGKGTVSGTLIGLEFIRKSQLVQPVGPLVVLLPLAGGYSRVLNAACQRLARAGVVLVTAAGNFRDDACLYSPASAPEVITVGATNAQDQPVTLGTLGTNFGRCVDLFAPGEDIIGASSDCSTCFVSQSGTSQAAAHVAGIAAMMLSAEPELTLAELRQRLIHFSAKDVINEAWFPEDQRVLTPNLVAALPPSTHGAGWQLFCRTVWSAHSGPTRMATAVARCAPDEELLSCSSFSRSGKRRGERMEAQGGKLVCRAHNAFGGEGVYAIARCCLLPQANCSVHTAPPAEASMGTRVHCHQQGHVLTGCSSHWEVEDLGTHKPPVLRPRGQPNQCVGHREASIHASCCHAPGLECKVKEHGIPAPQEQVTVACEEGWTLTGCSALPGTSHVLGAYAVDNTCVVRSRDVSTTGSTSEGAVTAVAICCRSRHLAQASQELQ
Protocol: SPR was used to obtain the binding data for PCSK9 receptor ligand compound (C5), either alone or as part of the bifunctional compounds (BFC1), respectively.
SPR Binding experiments were performed on a Proteon XPR36 instrument (Bio-Rad Laboratories). Purified recombinant full length human PCSK9 with C-terminal biotinylated Avitag was used for the assay. Biotinylated human PCSK9 was incubated with fivefold molar excess of bifunctional compound (BFC1) or compound (C5), and immobilized onto a Neutravidin coated sensor chip. (NLC chip, Bio-Rad Laboratories, Inc). After conditioning the chip by injecting running buffer (20 mM Tris pH7.5, 300 mM NaCl, 25 mM CaCl2, 2 mM betamercaptoethanol, 2% DMSO and 0.05% Tween-20) at a flow rate of 0.1 mL/min for 240 s, PCSK9 protein was injected at a protein concentration of 0.02 mg/ml in running buffer with fivefold molar excess of bifunctional compound and a flow rate of 0.03 mL/min followed by 4 washes with running buffer with 1 μM of bifunctional compound (0.1 mL/min for 60 seconds each).
To perform sandwich SPR binding assays, His-ASGPR1 (62-291) protein stocks were diluted with running buffer to a desired concentration. ASGPR was injected at a flow rate of 0.1 mL/min for 240 s and allowed to dissociate for 1200 s. Sensorgrams were recorded for association and dissociation phases. All sensorgrams were processed by subtracting the binding response recorded from a blank control surfaces (or interspot surfaces), followed by subtracting buffer blank injections from the reaction surface. Data were processed with the ProteOn Manager software (version 3.1.0.6, Bio-Rad, Inc.).

[1] = Bifunctional Compound (PCSK9 series), Table 9, read-out: ASGPR binding KD
[2] = Bifunctional Compound, SPR, read-out: PCSK9 KD
[3] = Free Ligand, SPR, read-out: PCSK9 KD

Kd (human ASGPR1; [1]) [nM] | Kd (human PCSK9; [2]) [nM] | Structure (SMILES) | also measured
0.32 | 3.9 | CC(=O)N[C@H]1[C@H](OCCCCC(=O)NCCCNCC(=O)CCOCC(COCCC(=O)NCCCNC(=O)CCCCO[C@@H]2O[C@H](CO)[C@H](O)[C@H](O)[C@H]2NC(C)=O)(COCCC(=O)NCCCNC(=O)CCCCO[C@@H]2O[C@H](CO)[C@H](O)[C@H](O)[C@H]2NC(C)=O)NC(=O)CCCCCCC(=O)NCCCC[C@H](NC(=O)CNC(=O)[C@@H]2CSCC(=O)N[C@@H](Cc3ccccc3)C(=O)N[C@@H](C(C)C)C(=O)N3CCC[C@H]3C(=O)N[C@@H]([C@@H](C)O)C(=O)N[C@@H]([C@@H](C)O)C(=O)N[C@@H](Cc3ccc(-c4ccccc4)cc3)C(=O)N(C)[C@@H](C)C(=O)N[C@@H](Cc3ccc(-c4ccccc4)cc3)C(=O)N(C)[C@@H](C)C(=O)N[C@@H](CCC(=O)O)C(=O)N[C@@H](C)C(=O)N3CCC[C@H]3C(=O)N2)C(N)=O)O[C@H](CO)[C@H](O)[C@@H]1O [BFC-1] ({CH2CO}-FVPTT[Bip][NMeA][Bip][NMeA]EAPCGK(X4)-NH2; thioether N-13) | 
 |  | CC(C)[C@@H]1NC(=O)[C@H](Cc2ccccc2)NC(=O)CSC[C@@H](C(=O)NCC(=O)N[C@@H](CCCCNC(=O)OC[C@@H]2[C@@H]3CCc4c(nnn4CCCCCCO[C@H](O[C@@H](/C=N/OCC(=O)NNC(=O)CCCO[C@@H]4O[C@H](CO[C@H]5O[C@H](CO[C@H]6O[C@H](CO)[C@@H](O)[C@H](O)[C@@H]6O[C@H]6O[C@H](COP(=O)(O)O)[C@@H](O)[C@H](O)[C@@H]6O)[C@@H](O)[C@H](O)[C@@H]5O)[C@@H](O)[C@H](O[C@H]5O[C@H](CO)[C@@H](O)[C@H](O)[C@@H]5O[C@H]5O[C@H](COP(=O)(O)O)[C@@H](O)[C@H](O)[C@@H]5O)[C@@H]4O)CO)[C@H](O)/C=N\OCC(=O)NNC(=O)CCCO[C@@H]4O[C@H](CO[C@H]5O[C@H](CO[C@H]6O[C@H](CO)[C@@H](O)[C@H](O)[C@@H]6O[C@H]6O[C@H](COP(=O)(O)O)[C@@H](O)[C@H](O)[C@@H]6O)[C@@H](O)[C@H](O)[C@@H]5O)[C@@H](O)[C@H](O[C@H]5O[C@H](CO)[C@@H](O)[C@H](O)[C@@H]5O[C@H]5O[C@H](COP(=O)(O)O)[C@@H](O)[C@H](O)[C@@H]5O)[C@@H]4O)CC[C@@H]32)C(N)=O)NC(=O)[C@@H]2CCCN2C(=O)[C@H](C)NC(=O)[C@H](CCC(=O)O)NC(=O)[C@H](C)N(C)C(=O)[C@H](Cc2ccc(-c3ccccc3)cc2)NC(=O)[C@H](C)N(C)C(=O)[C@H](Cc2ccc(-c3ccccc3)cc2)NC(=O)[C@H]([C@@H](C)O)NC(=O)[C@H]([C@@H](C)O)NC(=O)[C@@H]2CCCN2C1=O [BFC-3] | Kd (human PCSK9): 7.7 nM
90 | 4.6 | CC(=O)N[C@H]1[C@H]2OC[C@](COCCOCCOCCOCCn3cc(COCCNC(=O)CCOCCOCCOCCOCCC(=O)NCCCC[C@H](NC(=O)CNC(=O)[C@@H]4CSCC(=O)N[C@@H](Cc5ccccc5)C(=O)N[C@@H](C(C)C)C(=O)N5CCC[C@H]5C(=O)N[C@@H]([C@@H](C)O)C(=O)N[C@@H]([C@@H](C)O)C(=O)N[C@@H](Cc5ccc(-c6ccccc6)cc5)C(=O)N(C)[C@@H](C)C(=O)N[C@@H](Cc5ccc(-c6ccccc6)cc5)C(=O)N(C)[C@@H](C)C(=O)N[C@@H](CCC(=O)O)C(=O)N[C@@H](C)C(=O)N5CCC[C@H]5C(=O)N4)C(N)=O)nn3)(O2)[C@H](O)[C@@H]1O [BFC-5] ({CH2CO}-FVPTT[Bip][NMeA][Bip][NMeA]EAPCGK(X1)-NH2; thioether N-13) | 
< 1 | 5.8 | CC(=O)N[C@H]1[C@H]2OC[C@](COCCOCCOCCOCCn3cc(COCC(COCc4cn(CCOCCOCCOCCOC[C@@]56CO[C@@H](O5)[C@H](NC(C)=O)[C@@H](O)[C@H]6O)nn4)(COCc4cn(CCOCCOCCOCCOC[C@@]56CO[C@@H](O5)[C@H](NC(C)=O)[C@@H](O)[C@H]6O)nn4)NC(=O)CCOCCOCCOCCOCCC(=O)NCCCC[C@H](NC(=O)CNC(=O)[C@@H]4CSCC(=O)N[C@@H](Cc5ccccc5)C(=O)N[C@@H](C(C)C)C(=O)N5CCC[C@H]5C(=O)N[C@@H]([C@@H](C)O)C(=O)N[C@@H]([C@@H](C)O)C(=O)N[C@@H](Cc5ccc(-c6ccccc6)cc5)C(=O)N(C)[C@@H](C)C(=O)N[C@@H](Cc5ccc(-c6ccccc6)cc5)C(=O)N(C)[C@@H](C)C(=O)N[C@@H](CCC(=O)O)C(=O)N[C@@H](C)C(=O)N5CCC[C@H]5C(=O)N4)C(N)=O)nn3)(O2)[C@H](O)[C@@H]1O [BFC-6] | 
22 |  | COC[C@@H]1NC(=O)[C@H](CCCNC(=O)CCOCCOCCOCCOCCC(=O)NCCOCc2cn(CCOCCOCCOCCOC[C@@]34CO[C@@H](O3)[C@H](NC(C)=O)[C@@H](O)[C@H]4O)nn2)N(Cc2ccc(Cl)cc2Oc2ccc(-c3cnc(CN(C)C)n3C)cc2)C(=O)C[C@@H](Cc2ccccc2)C(=O)N(C)[C@H]2CCCC[C@@H]2NC(=O)C[C@H](Cc2ccc(Cl)cc2)N(C)C1=O [BFC-12] | 
 |  | CC(=O)CCC(=O)NCCCC[C@H](NC(=O)CNC(=O)[C@@H]1CSCC(=O)N[C@@H](Cc2ccccc2)C(=O)N[C@@H](C(C)C)C(=O)N2CCC[C@H]2C(=O)N[C@@H]([C@@H](C)O)C(=O)N[C@@H]([C@@H](C)O)C(=O)N[C@@H](Cc2ccc(-c3ccccc3)cc2)C(=O)N(C)[C@@H](C)C(=O)N[C@@H](Cc2ccc(-c3ccccc3)cc2)C(=O)N(C)[C@@H](C)C(=O)N[C@@H](CCC(=O)O)C(=O)N[C@@H](C)C(=O)N2CCC[C@H]2C(=O)N1)C(N)=O [C5] ({CH2CO}-FVPTT[Bip][NMeA][Bip][NMeA]EAPCGK(Levulinoyl)-NH2; thioether N-13) | Kd (human PCSK9; [3]): 1.2 nM
 |  | COC[C@@H]1NC(=O)[C@H](CCCN)N(Cc2ccc(Cl)cc2Oc2ccc(-c3cnc(CN(C)C)n3C)cc2)C(=O)C[C@@H](Cc2ccccc2)C(=O)N(C)[C@H]2CCCC[C@@H]2NC(=O)C[C@H](Cc2ccc(Cl)cc2)N(C)C1=O [C9, (4S,7S,10S,14R,16aS,20aS)-10-(3-aminopropyl)-14-benzyl-11-(4-chloro-2-(4-(2-((dimethylamino)methyl)-1-methyl-1H-imidazol-5-yl)phenoxy)benzyl)-4-(4-chlorobenzyl)-7-(methoxymethyl)-5,16-dimethylhexadecahydrobenzo[1][1,4,7,11,14]pentaazacyclooctadecine-2,6,9,12,15 (3H)-pentaone] | Kd (human PCSK9; [3]): < 1 nM
 |  | CC(=O)N[C@H]1[C@H](OCCCCC(=O)NCCCNC(=O)CCOCC(N)(COCCC(=O)NCCCNC(=O)CCCCOC2O[C@H](CO)[C@H](O)[C@H](O)[C@H]2NC(C)=O)COCCC(=O)NCCCNC(=O)CCCCO[C@@H]2O[C@H](CO)[C@H](O)[C@H](O)[C@H]2NC(C)=O)O[C@H](CO)[C@H](O)[C@@H]1O (stereo partly drawn) [int-CC2, N,N′-(10-((3-((3-(5-(((3R,4R,5R,6R)-3-acetamido-4,5-dihydroxy-6-(hydroxymethyl)tetrahydro-2H-pyran-2-yl)oxy)pentanamido)propyl)amino)-3-oxopropoxy)methyl)-10-amino-5,15-dioxo-8,12-dioxa-4,16-diazanonadecane-1,19-diyl)bis(5-(((2R,3R,4R,5R,6R)-3-acetamido-4,5-dihydroxy-6-(hydroxymethyl)tetrahydro-2H-pyran-2-yl)oxy)pentanamide)] | Kd (human ASGPR1; Free Ligand, Table 7, read-out: ASGPR KD): 0.9 nM

Source: patent US12605451B2, “Targeted plasma protein degradation” (Novartis AG, priority 2020, dated 2026)
